Test results as given in PMC4491109, “Synthesis and anticonvulsant activity of new N-phenyl-2-(4-phenylpiperazin-1-yl)acetamide derivatives” (Medicinal Chemistry Research, 2015).
Read-outs that look alike come from different tables or passages of the source.

Experiments:
[1] = test system: maximal electroshock (MES) seizures; test: MES test after oral administration in rats (screen and quantification); format: in vivo; settings: for ED50: Rattus norvegicus, po, at TPE, 95 % confidence limits in parentheses; for PI (TD50/ED50), MES: protective index for MES
Procedure: This screen discloses the time of onset, the approximate time of peak effect (TPE) and the duration of anticonvulsant activity or neurotoxicity.
The quantitative evaluation of the MES median effective dose (ED50) and toxic dose (TD50) was performed at previously estimated TPE—2 h.
(§1) Phase I of the in vivo studies involved three tests: MES, scPTZ and rotarod test for NT. Male albino mice (CF#1 strain, weighing 18–25 g) and male albino rats (Sprague–Dawley) were used as experimental animals. The animals were housed in metabolic cages and allowed free access to food and water. The compounds were injected intraperitoneally to mice as a suspension in 0.5 % methylcellulose/water mixture at a dose level 30, 100 or 300 mg/kg with anticonvulsant activity and neurotoxicity assessment at 0.5 and 4 h after administration. Promising derivatives from phase I underwent phase VIa in which they were administrated orally into rats at a fixed dose of 30 mg/kg for both MES and the rotarod toxicity determination at five pretreatment times: 0.25, 0.5, 1, 2, 4 h. Groups of eight mice or four rats are employed.
In the MES screen, an electrical stimulus of 0.2 s in duration (50 mA in mice and 150 mA in rats) is delivered via corneal electrodes primed with an electrolyte solution containing an anesthetic agent. The endpoint is the tonic extension of the hind limbs. […] Mice not displaying hind limb tonic extension are considered to be protected from seizures.

mice (rotarod test) = test: Neurotoxicity screening (NT), rotarod test, i.p. administration in mice; format: in vivo; settings: for dose showing neurotoxicity in the rotarod test (NT): ip
Procedure: (§2) Considering the aforementioned facts, the profile of anticonvulsant activity of final compounds 3–24 was established in the MES and scPTZ tests, after intraperitoneal (i.p.) injection in mice at doses of 30, 100 and 300 mg/kg. An observation was carried out at two different time intervals—0.5 and 4 h. Furthermore, in addition to the primary anticonvulsant screening, the acute neurological toxicity (NT) was determined in mice by the rotarod test.
as §1
The neurological toxicity test (NT) induced by a compound was detected in mice or rats using standardized rotarod test (Dunham and Miya, [1957]). Untreated control mice or rats, when placed on the rod, can maintained their equilibrium for a prolonged time period.

[2] = test system: maximal electroshock (MES) seizures; test: Maximal electroshock (MES) test, i.p. administration in mice; format: in vivo; settings: Mus musculus, ip, doses of 30, 100 or 300 mg/kg
Procedure: as §2
(§3) Compounds 3–24 were pharmacologically preevaluated within the Antiepileptic Drug Development (ADD) Program in Epilepsy Branch, Neurological Disorders Program, National Institute of the Neurological and Communicative Disorders and Stroke (NIH/NINDS), Rockville, MD, USA, by using procedures described elsewhere (Krall et al., [1978]; Kupferberg, [1989]).
as §1
In the MES screen, an electrical stimulus of 0.2 s in duration (50 mA in mice and 150 mA in rats) is delivered via corneal electrodes primed with an electrolyte solution containing an anesthetic agent. The endpoint is the tonic extension of the hind limbs. In the control groups, the procedures cause immediate hind limb tonic extension. Mice not displaying hind limb tonic extension are considered to be protected from seizures.

[3] = test system: pentylenetetrazole-induced seizures; test: Subcutaneous pentylenetetrazole (scPTZ) test, i.p. administration in mice; format: in vivo; settings: Mus musculus, ip, doses of 30, 100 or 300 mg/kg
Procedure: as §2, §3, §1
(§4) The scPTZ test utilizes a dose of pentylenetetrazole (85 mg/kg in mice) that produces clonic seizures lasting for a period of at least 5 s in 97 % (CD97) of animals tested. PTZ is administered 0.5 and 4 h after injections of tested compounds, and observation is carried out for 30 min. In the control groups, the first episode of clonic convulsions is observed between 6 and 15 min of observation. The absence of clonic convulsions in the observed time period of […] is interpreted as the compound’s ability to protect against PTZ-induced seizures.

[4] = test system: pentylenetetrazole-induced seizures; test: scPTZ test after p.o. administration in rats (quantification); format: in vivo; settings: for ED50: Rattus norvegicus, po, at TPE, 95 % confidence limits in parentheses
Procedure: On the basis of the preliminary data in rats, compound 20 was chosen for quantification of the pharmacological parameters (ED50 and TD50) after p.o. application. The quantitative evaluation of the MES median effective dose (ED50) and toxic dose (TD50) was performed at previously estimated TPE—2 h.
as §4

in vivo = settings: male, Sprague-Dawley, rat, po
[5] = test system: 6-Hz psychomotor seizures; test: Psychomotor seizure test (6-Hz), i.p. in mice; format: in vivo; settings: 100 mg/kg; for 6-Hz, number of mice protected/number of mice tested, 0.25 h / 6-Hz, number of mice protected/number of mice tested, 0.5 h / 6-Hz, number of mice protected/number of mice tested, 1 h / 6-Hz, number of mice protected/number of mice tested, 2 h / 6-Hz, number of mice protected/number of mice tested, 4 h: current 32 mA
From the text: In the next step of pharmacological investigations, four compounds 12, 19, 20 and 24 were chosen for the evaluation of anticonvulsant activity in the psychomotor 6-Hz test (Table 4). The selection was made randomly as a part of the search of molecules providing anti-6-Hz protection among chemically diversified compounds pursued in the NIH/NINDS. It should be noticed that 6-Hz screen has been validated as a model of therapy-resistant epilepsy (Barton et al., [2001]).
The 6-Hz model is an alternative electroshock paradigm that uses low-frequency (6 Hz), long-duration (3 s) electrical stimulation. Corneal stimulation (0.2 ms duration monopolar rectangular pulses at 6-Hz for 3 s) was delivered by a constant-current device. During the stimulation, mice were manually restrained and released into the observation cage immediately after the current application. The seizures manifest in “stunned” posture associated with rearing, forelimb, automatic movements and clonus, twitching the vibrissae and Straub–tail. The duration of the seizure activity ranges from 60 to 120 s in untreated animals. At the end of the seizure, animals resume their normal exploratory behavior. The experimental end point is protection against the seizure. The animal is considered to be protected if it resumes its normal exploratory behavior within 10 s from the stimulation (Brown et al., [1953]).

PTZ seizures = test system: PTZ seizures; design: method as in Rogawski, 2006; settings: even at high doses, ref Rogawski, 2006; cited from earlier work
[6] = test system: 6-Hz psychomotor seizures; design: method as in Rogawski, 2006; settings: ref Rogawski, 2006; cited from earlier work
MES seizures = test system: MES seizures; design: method as in Rogawski, 2006; settings: even at high doses, ref Rogawski, 2006; cited from earlier work
rats (rotarod test) = test: Neurotoxicity, rotarod test after p.o. administration in rats; settings: at TPE, 95 % confidence limits in parentheses
[7] = 0.5 h, read-out: MES, minimum dose effective in half or more animals tested, 0.5 h
[8] = 4 h, read-out: MES, minimum dose effective in half or more animals tested, 4 h
[9] = 0.5 h, read-out: scPTZ, minimum dose effective in half or more animals tested, 0.5 h
[10] = 4 h, read-out: scPTZ, minimum dose effective in half or more animals tested, 4 h

SMILES	MES, number of rats protected/number of rats tested, 0.25 h ([1]; p.o., 30 mg/kg)	MES, number of rats protected/number of rats tested, 0.5 h ([1]; p.o., 30 mg/kg)	MES, number of rats protected/number of rats tested, 1 h ([1]; p.o., 30 mg/kg)	MES, number of rats protected/number of rats tested, 2 h ([1]; p.o., 30 mg/kg, 2 h)	MES, number of rats protected/number of rats tested, 4 h ([1]; p.o., 30 mg/kg)	NT (rotarod), minimum dose neurotoxic in half or more animals tested, 0.5 h (mice (rotarod test); male, CF#1, mouse, in vivo)	minimal effective dose [2, 7]	minimal effective dose [2, 8]	minimal effective dose [3, 9]	minimal effective dose [3, 10]	PI (TD50/ED50), MES ([1]; p.o.)	dose showing neurotoxicity in the rotarod test (NT) (mice (rotarod test); male, CF#1, mouse, in vivo)	6-Hz, number of mice protected/number of mice tested, 0.25 h [5]	6-Hz, number of mice protected/number of mice tested, 0.5 h ([5]; 0.5 h)	6-Hz, number of mice protected/number of mice tested, 1 h ([5]; 1 h)	6-Hz, number of mice protected/number of mice tested, 2 h ([5]; 2 h)	6-Hz, number of mice protected/number of mice tested, 4 h [5]	further results
O=C(CN1CCN(Cc2ccccc2)CC1)Nc1cccc(C(F)(F)F)c1 [Compound 22, 2-(4-Benzylpiperazin-1-yl)-N-[3-(trifluoromethyl)phenyl]acetamide]	1/4	1/4	1/4	1/4	1/4	300^33 mg/kg	300 mg/kg	> 300 mg/kg	> 300 mg/kg	> 300 mg/kg	–	–	–	–	–	–	–	response comment (adverse sign observed) (mice (rotarod test); mice, i.p., 300 mg/kg): tremors
O=C1NC(=O)C(c2ccccc2)(c2ccccc2)N1 [Phenytoin, reference compound]	1/4	4/4	3/4	3/4	3/4	100 mg/kg	30 mg/kg	30 mg/kg	> 300 mg/kg	> 300 mg/kg	>3.6 (MES)	–	–	–	–	–	–	ED50 [4]: > 500 mg/kg; ED50 [1]: 28.1 mg/kg; NT (rotarod), minimum dose neurotoxic in half or more animals tested, 4 h (mice (rotarod test); male, CF#1, mouse, in vivo, 4 h): 100 mg/kg; TD50 at 2 h (in vivo): > 100 mg/kg
Cl.O=C(CN1CCOCC1)Nc1cccc(Cl)c1 [Compound 13, N-(3-chlorophenyl)-2-morpholino-acetamide monohydrochloride]	0/4	1/4	0/4	0/4	0/4	300 mg/kg	100 mg/kg	300 mg/kg	> 300 mg/kg	> 300 mg/kg	–	300 mg/kg	–	–	–	–	–	–
Cl.O=C(CN1CCN(c2cccc(C(F)(F)F)c2)CC1)Nc1cccc(C(F)(F)F)c1 [Compound 20, N-[3-(Trifluoromethyl)phenyl]-2-[4-[3-(trifluoromethyl)phenyl]piperazin-1-yl]acetamide monohydrochloride]	0/4	1/4	0/4	2/4	0/4	–	> 300 mg/kg	100 mg/kg	> 300 mg/kg	> 300 mg/kg	>9.56 (MES)	–	1/4	0/4	0/4	1/4	1/4	ED50 [1]: 52.3 mg/kg; MES, % of animals protected, 2 h ([1]; p.o., 30 mg/kg, 2 h): 50%; 6-Hz, % of animals protected, 0.25 h [5]: 25%; 6-Hz, % of animals protected, 2 h ([5]; 2 h): 25%; 6-Hz, % of animals protected, 4 h [5]: 25%; TD50 at 2 h (in vivo): > 500 mg/kg
Cl.O=C(CN1CCN(c2ccc(F)cc2)CC1)Nc1cccc(C(F)(F)F)c1 [Compound 19, 2-[4-(4-Fluorophenyl)piperazin-1-yl]-N-[3-(trifluoromethyl)phenyl]acetamide monohydrochloride]	–	–	–	–	–	300 mg/kg	300 mg/kg	100 mg/kg	> 300 mg/kg	> 300 mg/kg	–	300 mg/kg	0/4	0/4	0/4	0/4	1/4	6-Hz, % of animals protected, 4 h [5]: 25%
CC[C@@H](C(N)=O)N1CCCC1=O [levetiracetam]	–	–	–	–	–	–	–	–	–	–	–	–	–	–	–	–	–	activity against classical PTZ seizures (in words) (PTZ seizures): inactive; effectiveness in the 6-Hz psychomotor seizure model (in words) [6]: high effectiveness; activity against classical MES seizures (in words) (MES seizures): inactive
CCCC(CCC)C(=O)O [Valproic acid]	–	–	–	–	–	–	–	–	–	–	1.6	–	–	–	–	–	–	ED50 [4]: 646 mg/kg; PI (TD50/ED50), scPTZ ([4]; protective index for scPTZ): 1.2; TD50 NT (rotarod) (rats (rotarod test)): 784 (503–1176) mg/kg
Cl.O=C(CN1CCOCC1)Nc1cccc(C(F)(F)F)c1 [Compound 24, 2-Morpholino-N-[3-(trifluoromethyl)phenyl]acetamide monohydrochloride]	–	–	–	–	–	100 mg/kg	100 mg/kg	> 300 mg/kg	> 300 mg/kg	> 300 mg/kg	–	100 mg/kg	4/4	2/4	3/4	0/4	0/4	6-Hz, % of animals protected, 0.25 h [5]: 100%; 6-Hz, % of animals protected, 0.5 h ([5]; 0.5 h): 50%; 6-Hz, % of animals protected, 1 h ([5]; 1 h): 75%
